Data on 17 compounds can be found in patent USRE50724E1, “4-membered ring carboxamides used as nematicides” (SYNGENTA CROP PROTECTION AG, priority 2013, dated 2026).

Where only a bound is given, the exact number is not on record here.

In one assay the test system is Meloidogyne spp. Kind of assay: Meloidogyne spp. (root-knot nematode), nematicide, contact activity, preventive: cucumber seed in filter paper pouch. Format: in vivo. The following applies: 288 h, cucumber cv. Toshka seed in pouch, 3000 eggs, twelve days, read-out: reduction of galling compared to the untreated control. As for the experimental part: Meloidogyne spp. (Root-Knot Nematode) Nematicide, Contact Activity, Preventive. Filter papers (9 cm×4.5 cm) with a small pocket were placed into plastic pouches (12 cm×6 cm). One cucumber cv. Toshka seed was placed in the centre of the filter paper pocket of all the pouches needed for a test. The cucumber seeds in the pouches were treated with test solutions at 200 ppm by pipetting the solution directly over the cucumber seed in the filter paper pocket in the pouch. Prior to application, the compound solution was prepared at twice the concentration required and the egg suspension is prepared with FORL nutrient solution with 3000 eggs/0.5 ml. After applying all the treatments, 3000 eggs (in 0.5 ml of FORL nutrient solution) were pipetted into the pouches. The pouches were incubated in a moist chamber for twelve days and watered regularly to maintain good filter paper moisture essential for the growing cucumber root system. After this period, the filter paper containing the germinated cucumber seedling was removed from the plastic pouch to assess the number of galls caused by Meloidogyne spp. per root system. Phytotoxicity was measured as a reduction of growth of the emerged cucumber seedling in comparison to the control.

Another assay has as its system Heterodera schachtii. Kind of assay: Heterodera schachtii (sugar beet cyst nematode), nematicide, contact activity: juvenile paralysis in 16-well assay plates. Format: in vivo. The following applies: 200 ppm, approx. 500 juveniles per well, 24 hours incubation at 25° C. in darkness, read-out: nematode immobilization compared to the untreated control. As for the experimental part:
Heterodera schachtii (Sugar Beet Cyst Nematode), Nematicide, Contact Activity
The tested application rate of each compound was 200 ppm. All solutions were brought to a concentration of 400 ppm, respectively, as they were subsequently diluted by adding the equivalent amount of water containing juvenile nematodes. After preparation of the suspensions, 1 ml of each suspension and concentration was transferred to 16-well assay plates with a total of three replicates per treatment. Approximately 500 juveniles of Heterodera schachtii were added in 1 ml of water to each well. Nematodes in water served as controls. The plates were placed in a dark box and stored at room temperature. Nematode paralysis was determined after 24 hours incubation at 25° C. in darkness.

Consider `Cc1ncccc1C(=O)N[C@H]1CC[C@H]1c1ccc(Cl)cc1Cl` [Compound 61.7, N-[(1S,2S)-2-(2,4-dichlorophenyl)cyclobutyl]-2-methylpyridine-3-carboxamide], for which the pest or weed control at 200 ppm in the assay on Meloidogyne spp. is greater than 80%; in the assay with Heterodera schachtii, greater than 75%. For `O=C(N[C@H]1CC[C@H]1c1ccc(Cl)cc1Cl)c1ccccc1Br` [Compound 61.8, 2-bromo-N-[(1S,2S)-2-(2,4-dichlorophenyl)cyclobutyl]benzamide] the same measures were greater than 80% and greater than 75%. For `O=C(N[C@H]1CC[C@H]1c1ccc(Cl)cc1)c1c(F)cccc1C(F)(F)F` [Compound 61.41, N-[(1S,2S)-2-(4-chlorophenyl)cyclobutyl]-2-fluoro-6-(trifluoromethyl)benzamide], in that order: greater than 80% and greater than 75%. For `O=C(N[C@H]1CC[C@H]1c1ccc(Cl)cc1Cl)c1ncccc1Br` [Compound 61.60, 3-bromo-N-[(1S,2S)-2-(2,4-dichlorophenyl)cyclobutyl]pyridine-2-carboxamide], in that order: greater than 80% and greater than 75%. On to `Cc1occc1C(=O)N[C@H]1CC[C@H]1c1ccc(Cl)cc1Cl` [Compound 61.64, N-[(1S,2S)-2-(2,4-dichlorophenyl)cyclobutyl]-2-methylfuran-3-carboxamide], for which the pest or weed control at 200 ppm is greater than 80% with Meloidogyne spp. and greater than 75% in the assay with Heterodera schachtii. `O=C(N[C@H]1CC[C@H]1c1ccc(Cl)cc1Cl)c1c(F)cccc1Cl` [Compound 61.66, 2-chloro-N-[(1S,2S)-2-(2,4-dichlorophenyl)cyclobutyl]-6-fluorobenzamide]: the results for the pest or weed control at 200 ppm in the assay with Meloidogyne spp. and in the assay with Heterodera schachtii were greater than 80% and greater than 75%, respectively.

Regarding `COc1cccc(F)c1C(=O)N[C@H]1CC[C@H]1c1ccc(Cl)cc1Cl` [Compound 61.68, N-[(1S,2S)-2-(2,4-dichlorophenyl)cyclobutyl]-2-fluoro-6-methoxybenzamide], the pest or weed control at 200 ppm in the assay on Meloidogyne spp. is greater than 80%; in the assay with Heterodera schachtii it was greater than 75%.

For the compound `Cc1cccc(F)c1C(=O)N[C@H]1CC[C@H]1c1ccc(Cl)cc1Cl` [Compound 61.69, N-[(1S,2S)-2-(2,4-dichlorophenyl)cyclobutyl]-2-fluoro-6-methylbenzamide], the pest or weed control at 200 ppm was greater than 80% in the assay with Meloidogyne spp. and greater than 75% with Heterodera schachtii. Regarding `Cn1cccc1C(=O)N[C@H]1CC[C@H]1c1ccc(Cl)cc1Cl` [Compound 61.76, N-[(1S,2S)-2-(2,4-dichlorophenyl)cyclobutyl]-1-methylpyrrole-2-carboxamide], the pest or weed control at 200 ppm is greater than 80% in the assay on Meloidogyne spp. and greater than 75% with Heterodera schachtii. For `Cn1cc(C(=O)N[C@H]2CC[C@H]2c2ccc(Cl)cc2Cl)c(C(F)F)n1` [Compound 61.77, N-[(1S,2S)-2-(2,4-dichlorophenyl)cyclobutyl]-3-(difluoromethyl)-1-methylpyrazole-4-carboxamide] the same measures were greater than 80% and greater than 75%. For `O=C(N[C@H]1CC[C@H]1c1ccc(Cl)cc1Cl)c1ccsc1Cl` [Compound 61.95, 2-chloro-N-[(1S,2S)-2-(2,4-dichlorophenyl)cyclobutyl]thiophene-3-carboxamide], in that order: greater than 80% and greater than 75%. For `O=C(N[C@H]1CC[C@H]1c1ccc(F)cc1F)c1ncccc1Br` [Compound 61.146, 3-bromo-N-[(1S,2S)-2-(2,4-difluorophenyl)cyclobutyl]pyridine-2-carboxamide], the pest or weed control at 200 ppm in the assay on Heterodera schachtii is greater than 75%.

On to `O=C(N[C@H]1CC[C@H]1c1ccc(F)cc1F)c1ncccc1C(F)(F)F` [Compound 61.151, N-[(1S,2S)-2-(2,4-difluorophenyl)cyclobutyl]-3-(trifluoromethyl)pyridine-2-carboxamide], for which the pest or weed control at 200 ppm with Heterodera schachtii is greater than 75%. Regarding `O=C(N[C@H]1CC[C@H]1c1ccc(Cl)cc1Cl)c1nccnc1Br` [Compound 61.162, 3-bromo-N-[(1S,2S)-2-(2,4-dichlorophenyl)cyclobutyl]pyrazine-2-carboxamide], the pest or weed control at 200 ppm in the assay on Heterodera schachtii was greater than 75%. On the same count and under the same terms, under `O=C(N[C@H]1CC[C@H]1c1ccc(Cl)cc1Cl)c1nnccc1C(F)(F)F` [Compound 61.167, N-[(1S,2S)-2-(2,4-dichlorophenyl)cyclobutyl]-4-(trifluoromethyl)pyridazine-3-carboxamide] stands greater than 75%; under `O=C(N[C@H]1CC[C@H]1c1ccc(Cl)cc1Cl)c1ccoc1Br` [Compound 61.173, 2-bromo-N-[(1S,2S)-2-(2,4-dichlorophenyl)cyclobutyl]furan-3-carboxamide], greater than 75%.

As for `O=C(N[C@H]1CC[C@H]1c1ccc(Cl)cc1Cl)c1ccoc1C(F)(F)F` [Compound 61.174, N-[(1S,2S)-2-(2,4-dichlorophenyl)cyclobutyl]-2-(trifluoromethyl)furan-3-carboxamide], in the assay with Heterodera schachtii, the pest or weed control at 200 ppm was greater than 75%.
